Data published in ChEMBL document CHEMBL1201862, “PubChem BioAssay data set” (2004).
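These data come from cells grown in 96-well plates and exposed to compound for 48 hours at five concentrations. Here, GI50 denotes the concentration required for 50% inhibition of growth.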 The source made the active and inactive calls. Cut-off read from the data, not from the text of the source: active = GI50 up to about 1.1 µM and inactive = higher.

Tests used:
Experiment in all cases: growth of human tumour cells (NCI), 48 h
TK-10 = tested on: TK-10
UACC-257 = tested on: UACC-257
RPMI-8226 = tested on: RPMI-8226
HOP-92 = tested on: HOP-92
A498 = tested on: A498
CAKI-1 = tested on: CAKI-1
IGROV-1 = tested on: IGROV-1
OVCAR-5 = tested on: OVCAR-5
U-251 = tested on: U-251
A549 = tested on: A549
SF-539 = tested on: SF-539
DMS-114 = tested on: DMS-114
SK-OV-3 = tested on: SK-OV-3
DMS-273 = tested on: DMS-273
HCT-15 = tested on: HCT-15
HL-60 = tested on: HL-60
RXF 393 = tested on: RXF 393
MDA-MB-231 = tested on: MDA-MB-231
MDA-N = tested on: MDA-N
BT-549 = tested on: BT-549

Row | Structure (SMILES) | GI50 (TK-10) | GI50 (UACC-257) | GI50 (RPMI-8226) | GI50 (HOP-92) | GI50 (A498) | GI50 (CAKI-1) | GI50 (IGROV-1) | GI50 (OVCAR-5) | GI50 (U-251) | GI50 (A549) | GI50 (SF-539) | GI50 (DMS-114) | GI50 (SK-OV-3) | GI50 (DMS-273) | GI50 (HCT-15) [µM] | GI50 (HL-60) | GI50 (RXF 393) | GI50 (MDA-MB-231) | GI50 (MDA-N) | GI50 (BT-549)
1 | CC12CC3CC(C)(C1)CC(N=[N+]=[N-])(C3)C2 | > 100 µM (inactive) | > 100 µM (inactive) | > 100 µM (inactive) | > 100 µM (inactive) | > 100 µM (inactive) | > 100 µM (inactive) | > 100 µM (inactive) | > 100 µM (inactive) | > 100 µM (inactive) | > 100 µM (inactive) | > 100 µM (inactive) | > 100 µM (inactive) | > 100 µM (inactive) | > 100 µM (inactive) |  |  |  |  |  | 
2 | CC1(C)Cc2cc(C(=O)O)c3c(c2C1=O)COCC3 | > 10 µM (inactive) | > 100 µM (inactive) | > 100 µM (inactive) |  | > 100 µM (inactive) | > 100 µM (inactive) | > 100 µM (inactive) | > 100 µM (inactive) | > 100 µM (inactive) | > 100 µM (inactive) | > 100 µM (inactive) | > 100 µM (inactive) | > 100 µM (inactive) | > 100 µM (inactive) | > 100 | > 100 µM (inactive) | > 100 µM (inactive) |  |  | 
3 | CC(C)(C)C1CCC2c3c([nH]c4ccccc34)C3C(=O)N(c4ccccc4)C(=O)C3C2C1 (stereo not given) | 3.71 µM (inactive) |  | 7.78 µM (inactive) |  | 2.5 µM (inactive) |  | 11.1 µM (inactive) | > 100 µM (inactive) | 3.1 µM (inactive) | 10.8 µM (inactive) | 8.97 µM (inactive) | 6.15 µM (inactive) | 2.15 µM (inactive) | 3.34 µM (inactive) | 22.8 | 12.8 µM (inactive) | 3.81 µM (inactive) |  |  | 
4 | COc1cc(OC)c2c(=O)cc(-c3ccc(OC)c(OC)c3OC)oc2c1 | > 100 µM (inactive) | > 100 µM (inactive) | > 100 µM (inactive) | 37 µM (inactive) |  | > 100 µM (inactive) | > 100 µM (inactive) | > 100 µM (inactive) |  | > 100 µM (inactive) | 31.9 µM (inactive) | > 100 µM (inactive) | > 100 µM (inactive) |  | > 100 | > 100 µM (inactive) | 57.5 µM (inactive) |  |  | 
5 | CN1CCOC(C(NC(=O)c2ccccc2)c2ccccc2)C1=O (stereo not given) | > 100 µM (inactive) | > 100 µM (inactive) | > 100 µM (inactive) | > 100 µM (inactive) | > 100 µM (inactive) | > 100 µM (inactive) | > 100 µM (inactive) | > 100 µM (inactive) | > 100 µM (inactive) | > 100 µM (inactive) | > 100 µM (inactive) |  | > 100 µM (inactive) | > 100 µM (inactive) | > 100 | > 100 µM (inactive) | > 100 µM (inactive) |  |  | 
6 | COc1ccc(/C=C2\CNC/C(=C\c3ccc(OC)cc3)C2=O)cc1 | > 100 µM (inactive) | 75.3 µM (inactive) | 15.6 µM (inactive) | 56.9 µM (inactive) |  | 14.1 µM (inactive) | 48.2 µM (inactive) | > 100 µM (inactive) | 17.6 µM (inactive) | 59.4 µM (inactive) | 13.6 µM (inactive) | 45.8 µM (inactive) | > 100 µM (inactive) | 23.2 µM (inactive) | 27.4 | 14 µM (inactive) | 21 µM (inactive) |  |  | 
7 | CN(C(=O)C12C3C4C1C1C2C3C41C#N)C(C)(C)C (stereo not given) | > 100 µM (inactive) | > 100 µM (inactive) | > 100 µM (inactive) |  | > 100 µM (inactive) | > 100 µM (inactive) | > 100 µM (inactive) | > 100 µM (inactive) | > 100 µM (inactive) | > 100 µM (inactive) | > 100 µM (inactive) | > 100 µM (inactive) | > 100 µM (inactive) | > 100 µM (inactive) |  | > 100 µM (inactive) |  |  |  | 
8 | ON/N=C/c1cc2c(cc1Br)OCO2 | > 386 µM (inactive) | > 386 µM (inactive) | > 386 µM (inactive) | 144 µM (inactive) |  | > 386 µM (inactive) | > 386 µM (inactive) | 164 µM (inactive) | 329 µM (inactive) | > 386 µM (inactive) | > 386 µM (inactive) | 251 µM (inactive) | > 386 µM (inactive) | > 386 µM (inactive) |  | > 386 µM (inactive) | 114 µM (inactive) |  |  | 
9 | COc1ccc2c([nH]c3cc(O)c(C)cc32)c1C=O | > 25 µM (inactive) |  | > 25 µM (inactive) | > 25 µM (inactive) |  |  | > 25 µM (inactive) | > 25 µM (inactive) | > 25 µM (inactive) | 18.5 µM (inactive) | > 25 µM (inactive) | > 25 µM (inactive) | > 25 µM (inactive) | > 25 µM (inactive) | 14.8 | 15.9 µM (inactive) | > 25 µM (inactive) |  |  | 
10 | CN(C)CC1CCCC(CN(C)C)C1OC(=O)c1ccccc1 (stereo not given) | > 100 µM (inactive) | > 100 µM (inactive) | > 100 µM (inactive) | > 100 µM (inactive) | > 100 µM (inactive) | > 100 µM (inactive) | > 100 µM (inactive) | > 100 µM (inactive) | > 100 µM (inactive) | > 100 µM (inactive) | > 100 µM (inactive) |  | > 100 µM (inactive) | > 100 µM (inactive) | > 100 | > 100 µM (inactive) | > 100 µM (inactive) |  |  | 
11 | O=C(NC1CCCCCC1)C1C(=O)N(C2CCCCCC2)C(=O)/C1=N\O (stereo not given) | 6.12 µM (inactive) | 38.8 µM (inactive) | 29.1 µM (inactive) | 20.6 µM (inactive) | 32.9 µM (inactive) | 40.2 µM (inactive) | 50 µM (inactive) | 50.8 µM (inactive) | 18.6 µM (inactive) | 42.8 µM (inactive) | 25.2 µM (inactive) | 33 µM (inactive) | 38.4 µM (inactive) |  | 34.4 | 22.5 µM (inactive) | 23.5 µM (inactive) |  |  | 
12 | Cc1c(C#N)c(=N)oc2ccccc12 | > 100 µM (inactive) | > 100 µM (inactive) | > 100 µM (inactive) | > 100 µM (inactive) | > 100 µM (inactive) | > 100 µM (inactive) | > 100 µM (inactive) | > 100 µM (inactive) | > 100 µM (inactive) | > 100 µM (inactive) | > 100 µM (inactive) |  | > 100 µM (inactive) |  | 83.2 | > 100 µM (inactive) | > 100 µM (inactive) | > 100 µM (inactive) | > 100 µM (inactive) | > 100 µM (inactive)
13 | CCn1c2c(c3ccccc31)C(c1ccccc1)CC1C(=O)N(c3ccccc3)C(=O)C21 (stereo not given) | > 100 µM (inactive) | > 100 µM (inactive) |  | 26.2 µM (inactive) | 5.78 µM (inactive) | 35.2 µM (inactive) | 33 µM (inactive) | > 100 µM (inactive) | > 10 µM (inactive) | 21.9 µM (inactive) | 35.4 µM (inactive) | 89.5 µM (inactive) | 24.7 µM (inactive) | 51.4 µM (inactive) | > 100 | 68.9 µM (inactive) |  |  |  | 
14 | COc1ccccc1/C=C1\C(=O)N(C(=O)c2ccc(NC(C)=O)cc2)N=C1C | > 100 µM (inactive) | > 100 µM (inactive) | > 100 µM (inactive) |  |  | > 100 µM (inactive) |  | > 100 µM (inactive) | > 100 µM (inactive) | > 100 µM (inactive) | > 100 µM (inactive) | > 100 µM (inactive) |  | > 100 µM (inactive) | > 100 | > 100 µM (inactive) |  |  |  | 
